Literature values, collected in US8685425B2, “Microencapsulation product and process” (priority 2004, dated 2014).

Structure (SMILES): CCN(CC)C(=O)c1cccc(C)c1 [DEET, N,N-diethyl-m-toluamide]
- solubility of DEET in water: around 1%
